Laboratory results from PMC8667882 (Journal of Enzyme Inhibition and Medicinal Chemistry, 2021).

System: CN (mouse brain extract)
Details: peptide 25 nM, RII substrate

effect on CN activity at 25 nM: minimal effects on CN activity
Sequence: GPHPVIVIT [pep1s]
